According to patent US20110060048A1, “Removing alcohol in vivo through esterification” (priority 2009, published 2011):
Like-named read-outs stand apart in the source and are kept apart here.

What was measured:
[1] = for C2H5OH % Decrease at Equilibrium, Trial 2 / C2H5OH % Decrease at Equilibrium, Trial 3 / C2H5OH % Decrease at Equilibrium, Trial 4 / C2H5OH % Decrease at Equilibrium, Trial 5 / C2H5OH % Decrease at Equilibrium, Average / C2H5OH % Decrease at Equilibrium, Trial 1: equal acetic acid
Protocol: Titrations with potassium permanganate (KMnO4) were later performed after the contents of each beaker received 5 minutes each of vigorous stirring and 25 minutes of inactivity to compare the final amount of ethanol left with the original amount.
In the following we describe the detailed procedure of in vitro experiment to verify the validity of reducing the amount of ethanol by esterification: • 1. Label four 100-mL beakers, 0.4 M, 0.6 M, 0.8 M, and 1.0 M. • 2. Put 17.15 mL of distilled water into each. • 3. Add 0.4 mL of concentrated ethanol to the first beaker, 0.6 mL to the second, 0.8 mL to the third, and 1.0 mL to the fourth. Swivel each beaker gently for 20-30 seconds to ensure mixing. See calculations below for explanation. • 4. Add another 17.15 mL of water to each beaker • 5. […] See calculations below for explanation. • 6. Stir each sample vigorously for five minutes in succession. […] Put on latex gloves before handling potassium permanganate. • 8. Set up two burettes, and fill each with approximately 100 mL of 0.2 M potassium permanganate. This will enable two titrations to be simultaneously done. • 9. Record the initial volume of potassium permanganate present in both burettes. • 10. Place 1.0 M and 0.8 M beakers on hot plate, and turn to power level 3. Heating quickens the titration process. • 11. Slowly drip KMnO4 into beakers while stirring. Make sure that each beaker is consistently titrated with the same burette to ensure that the exact volumes of KMnO4 that each beaker received can be easily calculated. • 12. Potassium permanganate is purple in color. When reacted with ethanol, a brown color (manganese oxide, MnO2) appears. The reaction is as follows:
When potassium permanganate ceases to be converted into manganese oxide, and the purple color stays, the titration is finished. There is no ethanol left in the beaker to react with potassium permanganate. • 13. Remove both beakers from hot plate. Measure the volume of potassium permanganate remaining in each burette. Subtract from the original volumes to find the volume of KMnO4 consumed in each reaction. • 14. Repeat steps 9-13 for the 0.6 M and 0.4 M beakers. • 15. Use stoichiometry to calculate the molar amount of 0.2 M potassium permanganate used in each titration. • 16. Ethanol and potassium permanganate react in a 3:4 molar ratio, according to the equation 3C2H5OH+4KMnO4→3CH3COOH+4MnO2+4KOH+H2O.
Again, use a chain calculation to calculate the molar amount of ethanol remaining in each beaker, then divide by […] to convert to molarity. Compare to the molarity of ethanol originally in each beaker. Calculate % error. • 17. Results (see Table 2)

[2] = eight male volunteers, alcoholic beverage followed by 30 grams of fructose or sucrose, hourly measurements; cited from earlier work

Compound: CC(=O)O [acetic acid]
- decrease in the amount of ethanol when the system reaches equilibrium ([1]; 0.4-1.0 M ethanol with same volume and concentration of acetic acid): 79-86%
- reduction of the ethanol amount ([1]; equal molar number of acetic acid added to the ethanol solution, 5 repeats): 80-90%
- C2H5OH % Decrease at Equilibrium, Trial 2 ([1]; initial C2H5OH 0.4 M): 78.1%
- C2H5OH % Decrease at Equilibrium, Trial 3 ([1]; initial C2H5OH 0.4 M): 81.5%
- C2H5OH % Decrease at Equilibrium, Trial 4 ([1]; initial C2H5OH 0.4 M): 81.2%
- C2H5OH % Decrease at Equilibrium, Trial 5 ([1]; initial C2H5OH 0.4 M): 80.0%
- C2H5OH % Decrease at Equilibrium, Average ([1]; initial C2H5OH 0.4 M, average of trials): 80.2%
- C2H5OH % Decrease at Equilibrium, Trial 2 ([1]; initial C2H5OH 0.6 M): 82.7%
- C2H5OH % Decrease at Equilibrium, Trial 3 ([1]; initial C2H5OH 0.6 M): 83.8%
- C2H5OH % Decrease at Equilibrium, Trial 4 ([1]; initial C2H5OH 0.6 M): 83.7%
- C2H5OH % Decrease at Equilibrium, Trial 5 ([1]; initial C2H5OH 0.6 M): 82.5%
- C2H5OH % Decrease at Equilibrium, Average ([1]; initial C2H5OH 0.6 M, average of trials): 83.2%
- C2H5OH % Decrease at Equilibrium, Trial 1 ([1]; initial C2H5OH 0.8 M): 89.1%
- C2H5OH % Decrease at Equilibrium, Trial 2 ([1]; initial C2H5OH 0.8 M): 86.2%
- C2H5OH % Decrease at Equilibrium, Trial 3 ([1]; initial C2H5OH 0.8 M): 84.7%
- C2H5OH % Decrease at Equilibrium, Trial 4 ([1]; initial C2H5OH 0.8 M): 84.6%
- C2H5OH % Decrease at Equilibrium, Trial 5 ([1]; initial C2H5OH 0.8 M): 85.5%
- C2H5OH % Decrease at Equilibrium, Average ([1]; initial C2H5OH 0.8 M, average of 5 trials): 86.0%
- C2H5OH % Decrease at Equilibrium, Trial 1 ([1]; initial C2H5OH 1.0 M): 91.3%
- C2H5OH % Decrease at Equilibrium, Trial 2 ([1]; initial C2H5OH 1.0 M): 88.8%
- C2H5OH % Decrease at Equilibrium, Trial 3 ([1]; initial C2H5OH 1.0 M): 86.5%
- C2H5OH % Decrease at Equilibrium, Trial 4 ([1]; initial C2H5OH 1.0 M): 91.1%
- C2H5OH % Decrease at Equilibrium, Trial 5 ([1]; initial C2H5OH 1.0 M): 90.4%
- C2H5OH % Decrease at Equilibrium, Average ([1]; initial C2H5OH 1.0 M, average of 5 trials): 89.6%

Compound: O=C(CO)[C@@H](O)[C@H](O)[C@H](O)CO [fructose]
- percent of ethanol decrease (plateau, on average) [2]: 29%

Compound: OC[C@H]1O[C@@](CO)(O[C@H]2O[C@H](CO)[C@@H](O)[C@H](O)[C@H]2O)[C@@H](O)[C@@H]1O [sucrose]
- percent of ethanol decrease (plateau, on average) [2]: 29%
